Measurements published in PubChem BioAssay AID330 (DTP/NCI, 2004).
Where “and” joins values, the source holds several entries; their conditions need not be identical. Equal values may be shown once. Toxic doses and inconclusive results are not listed. The calls were made as follows: active = survival T/C of 150% or more; inactive = T/C below 125% in these data.

Tested on: P388 leukemia ip, CD2F1 mice, survival T/C
Assay: NCI In Vivo Anticancer Drug Screen. Data for tumor model P388 Leukemia (intraperitoneal) in CD2F1 (CDF1) mice
Details: endpoint: median survival time, higher = longer survival
Outline: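 Mice carrying the transplanted tumor received test compound or vehicle. Survival was recorded in each group, and the value is the treated-group measurement divided by that of the vehicle-treated control group.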

[1] = dose: 60.0 mg/kg/injection, schedule: Q01DX005 (ip), vehicle: saline with Tween-80
[2] = dose: 120.0 mg/kg/injection, schedule: Q01DX005 (ip), vehicle: saline with Tween-80
[3] = dose: 240.0 mg/kg/injection, schedule: Q01DX005 (ip), vehicle: saline with Tween-80
[4] = dose: 12.5 mg/kg/injection, schedule: Q01DX009 (ip), vehicle: saline with Tween-80
[5] = dose: 25.0 mg/kg/injection, schedule: Q01DX009 (ip), vehicle: saline with Tween-80
[6] = dose: 50.0 mg/kg/injection, schedule: Q01DX009 (ip), vehicle: saline with Tween-80
[7] = dose: 200.0 mg/kg/injection, schedule: Q01DX009 (ip), vehicle: saline with Tween-80

Measured: T/C

CCOCCOCCOC(C)Oc1cccc(C(=O)OCC)c1 (centres undefined)
inactive: [1] 92 % of control | [2] 100 % of control | [3] 92 % of control

O=C(Nc1ccc([N+](=O)[O-])cc1)N1CCOCC1
inactive: [4] 97 % of control | [5] 89 % of control | [6] 86 % of control and 92 % of control | [7] 88 % of control

COC(=O)c1n[nH]nc1CC(N)=O
inactive: dose: 50.0 mg/kg/injection, schedule: Q01DX005 (ip), vehicle: saline 105 % of control | dose: 100.0 mg/kg/injection, schedule: Q01DX005 (ip), vehicle: saline 105 % of control | dose: 200.0 mg/kg/injection, schedule: Q01DX005 (ip), vehicle: saline 103 % of control

CCOC(=O)c1cnc2c(OC)ccc(OC)c2c1Cl
inactive: dose: 50.0 mg/kg/injection, schedule: Q01DX005 (ip), vehicle: saline with Tween-80 97 % of control | dose: 100.0 mg/kg/injection, schedule: Q01DX005 (ip), vehicle: saline with Tween-80 97 % of control | dose: 200.0 mg/kg/injection, schedule: Q01DX005 (ip), vehicle: saline with Tween-80 99 % of control

CCOc1nc2ccc(NC(C)C(=O)N3CCN(CCc4ccccc4)CC3)cc2s1 (centres undefined)
inactive: dose: 50.0 mg/kg/injection, schedule: Q01DX005 (ip), vehicle: Klucel (hydroxypropylcellulose) (HPC) 100 % of control | dose: 100.0 mg/kg/injection, schedule: Q01DX005 (ip), vehicle: Klucel (hydroxypropylcellulose) (HPC) 100 % of control | dose: 200.0 mg/kg/injection, schedule: Q01DX005 (ip), vehicle: Klucel (hydroxypropylcellulose) (HPC) 112 % of control

O=C(/C(=C(\C(=O)c1ccccc1)c1ccccc1)c1ccccc1)c1ccccc1
inactive: [6] 99 % of control | dose: 100.0 mg/kg/injection, schedule: Q01DX009 (ip), vehicle: saline with Tween-80 92 % of control | [7] 87 % of control | dose: 400.0 mg/kg/injection, schedule: Q01DX009 (ip), vehicle: saline with Tween-80 86 % of control

CNc1nc(Cl)cc2onc(C)c12
inactive: [1] 94 % of control | [2] 100 % of control | [3] 103 % of control

Cc1cc2n(n1)C(c1ccccc1)=C(c1ccccc1)OC2(c1ccccc1)c1ccccc1
inactive: dose: 50.0 mg/kg/injection, schedule: Q04DX002 (ip), vehicle: Klucel (hydroxypropylcellulose) (HPC) 101 % of control | dose: 100.0 mg/kg/injection, schedule: Q04DX002 (ip), vehicle: Klucel (hydroxypropylcellulose) (HPC) 97 % of control | dose: 200.0 mg/kg/injection, schedule: Q04DX002 (ip), vehicle: Klucel (hydroxypropylcellulose) (HPC) 97 % of control | dose: 400.0 mg/kg/injection, schedule: Q04DX002 (ip), vehicle: Klucel (hydroxypropylcellulose) (HPC) 98 % of control

O=S(=O)(O)O.[Fe]
inactive: [4] 95 % of control | [5] 95 % of control | [6] 86 % of control

COC1C=CC(=O)C(C)(c2ccc(S(=O)(=O)c3ccccc3)cc2)O1 (centres undefined)
inactive: [1] 104 % of control | [2] 95 % of control | [3] 106 % of control

FC(F)(F)c1cc(NC(=S)SC2CCCCC2)ccc1Cl
inactive: dose: 25.0 mg/kg/injection, schedule: Q01DX009 (ip), vehicle: saline 103 % of control | dose: 50.0 mg/kg/injection, schedule: Q01DX009 (ip), vehicle: saline 100 % of control and 110 % of control | dose: 100.0 mg/kg/injection, schedule: Q01DX009 (ip), vehicle: saline 107 % of control and 118 % of control | dose: 200.0 mg/kg/injection, schedule: Q01DX009 (ip), vehicle: saline 121 % of control

CC12CCC(Br)C(C)(C)C1C(O)C=C1C(=O)OCC1O2 (centres undefined)
inactive: dose: 4.0 mg/kg/injection, schedule: Q01DX005 (ip), vehicle: Klucel (hydroxypropylcellulose) (HPC) 102 % of control | dose: 8.0 mg/kg/injection, schedule: Q01DX005 (ip), vehicle: Klucel (hydroxypropylcellulose) (HPC) 96 % of control | dose: 16.0 mg/kg/injection, schedule: Q01DX005 (ip), vehicle: Klucel (hydroxypropylcellulose) (HPC) 102 % of control | dose: 32.0 mg/kg/injection, schedule: Q01DX005 (ip), vehicle: Klucel (hydroxypropylcellulose) (HPC) 102 % of control

CCC1(CC)C(=O)N(C)P(=O)(Oc2ccccc2)N(C)C1=O
inactive: dose: 100.0 mg/kg/injection, schedule: Q04DX002 (ip), vehicle: saline 100 % of control | dose: 200.0 mg/kg/injection, schedule: Q04DX002 (ip), vehicle: saline 103 % of control | dose: 400.0 mg/kg/injection, schedule: Q04DX002 (ip), vehicle: saline 101 % of control
